In the NIST ThermoML archive (doi:10.1021/je060107n):

Assay: mn = molality of the nth substance listed, in mol/kg
Details: 101 kPa, Liquid; for viscosity: Capillary tube (Ostwald / Ubbelohde) method; for speed of sound: Linear variable-path acoustic interferometer

O=[N+]([O-])[O-].O=[N+]([O-])[O-].[Mg+2] [magnesium nitrate] + O
Details	speed of sound, 273.15 K [m/s]	speed of sound, 278.15 K [m/s]	speed of sound, 283.15 K [m/s]	speed of sound, 288.15 K [m/s]	speed of sound, 293.15 K [m/s]	viscosity, 273.15 K [mPa·s]	viscosity, 278.15 K [mPa·s]	viscosity, 283.15 K [mPa·s]	viscosity, 288.15 K [mPa·s]	viscosity, 293.15 K [mPa·s]
m1 = 0.0145	1410.5	1434.8	1449.2	1471.7	1484.3	1.852	1.556	1.339	1.164	1.021
m1 = 0.0528	1415.6	1438.7	1458.5	1477.1	1486.7	1.874	1.58	1.357	1.18	1.038
m1 = 0.2491	1430.4	1451.6	1470.7	1487.6	1501.9	1.958	1.654	1.429	1.244	1.092
m1 = 0.3405	1443	1456.8	1475.6	1491.5	1507	–	–	–	–	–
m1 = 0.5931	–	–	–	–	–	2.122	1.805	1.564	1.367	1.209
m1 = 0.6173	1469.3	1486.9	1503.7	1517.8	1530.1	–	–	–	–	–
m1 = 0.896	1498.6	1514.8	1529	1541.2	1553.1	–	–	–	–	–
m1 = 0.9898	1510.3	1524.8	1538.8	1550.4	1561.5	2.391	2.047	1.775	1.554	1.378
m1 = 1.262	1538	1551.3	1563.1	1573.8	1582.5	2.659	2.268	1.971	1.727	1.53
m1 = 1.525	1566.3	1577.1	1587.6	1596.3	1604.4	–	–	–	–	–
m1 = 1.827	1600.5	1610.1	1617.9	1625.4	1631.9	3.232	2.765	2.4	2.098	1.859
m1 = 2.131	1632	1639.7	1645.2	1650.6	–	3.587	3.062	2.663	2.33	2.064
m1 = 2.493	1664.6	1670.1	1675.2	1677.8	–	–	–	–	–	–
m1 = 2.584	–	–	–	–	–	4.348	3.696	3.207	2.821	2.471
m1 = 2.793	1693.2	1696.9	1700.3	1703.5	–	–	–	–	–	–
m1 = 3.096	–	–	–	–	–	5.355	4.538	3.946	3.408	3.002
m1 = 3.118	1721.2	1723.7	1725.7	1727.3	–	–	–	–	–	–
m1 = 3.17	1730.6	1733	1734.2	1735.3	–	–	–	–	–	–
m1 = 3.329	–	–	–	–	–	5.964	5.056	4.336	3.754	3.308
m1 = 3.501	1752.4	1753.7	1754.9	1755.4	–	–	–	–	–	–
m1 = 3.704	–	–	–	–	–	6.966	5.857	5.02	4.345	3.807
m1 = 3.757	1771.9	1772.4	1771.9	1771.3	–	–	–	–	–	–
m1 = 4.039	–	–	–	–	–	8.21	6.897	5.864	5.051	4.432
m1 = 4.051	1791.3	1791.4	1790.4	1789.6	–	–	–	–	–	–
m1 = 4.285	1808.5	1807.3	1806.3	1804.5	–	–	–	–	–	–
m1 = 4.403	1820.2	1815.4	1813.5	1810.8	–	–	–	–	–	–
m1 = 4.728	–	–	–	–	–	11.85	9.74	8.233	7.067	6.098
m1 = 4.883	–	–	1847.2	1842.3	–	–	–	–	–	–
m1 = 4.907	–	–	–	–	–	–	–	–	7.798	6.799
